Reference: patent publication US20130324542A1, “[1,2,4]TRIAZOLO[4,3-B][1,2,4]TRIAZINE COMPOUNDS, PREPARATION METHOD AND USE THEREOF” (SHANGHAI INSTITUTE OF MATERIA MEDICA, CHINESE ACADEMY OF …, priority 2010, published 2013)
pIC50: −log10 of the molar value.

Tests used:
c-Met tyrosine kinase = c-Met tyrosine kinase (Homo sapiens, UniProt P08581); experiment: c-Met kinase activity on molecular level (ELISA, Poly(Glu,Tyr)4:1 substrate); assay type: biochemical; settings: ATP 5 μM, 37° C., 1 h
Description: Poly(Glu, Tyr)4:1 as an enzyme substrate was diluted by potassium ion-free PBS (10 mM, sodium phosphate buffer, 150 mM NaCl, pH7.2-7.4) into a solution of 20 μg/ml. […] After the liquid in wells was removed, the plate was washed three time by T-PBS (PBS solution containing 0.1% Tween-20) at 200 μl/well, 5 min for each time. The ELISA plate was then dried in an oven at 37° C. for 1-2 h.
Each well was added with 50 μL of ATP solution diluted by reaction buffer (50 mM HEPES pH 7.4, 50 mM MgCl2, 0.5 mM MnCl2, 0.2 mM Na3VO4, 1 mM DTT) at a final concentration of 5 μM. Compound diluted by 1% DMSO into a suitable concentration was added at 10 μl/well and then c-Met tyrosine kinase protein diluted by 40 μl of reaction buffer was added. The plate was placed on a shaking table (100 rpm) at 37° C. and incubated for 1 h, and then washed three times by T-PBS. For each assay, triplicate wells without enzyme were used as blank control and wells having the corresponding DMSO concentration without compound were used as negative control. Primary antibody PY99 (p-Tyr (PY99), Cell Signaling Technology, 1:1000 diluted in 5 mg/mL BSA T-PBS) was added at 100 μl/well. The plate was then placed on a shaking table at 37° C. and incubated for 0.5 h, and washed by T-PBS. Secondary antibody horseradish peroxidase-conjugated goat anti-mouse IgG (1:2000 diluted in 5 mg/mL BSA T-PBS) was added at 100 μl/well. The plate was then placed on a shaking table at 37° C. for 0.5 h and washed three times by T-PBS. 2 mg/mL of OPD developer (diluted by a 0.1M citric acid-sodium citrate buffer (pH=5.4) containing 0.03% of H2O2) was added at 100 μl/well, and the plate was kept in dark at 25° C. for 1-10 min. OPD was ultrasonically dissolved and the developer solution was prepared just before use. 2 M of H2SO4 was added at 50 μl/well to stop the reaction. The plate was read using a wavelength regulated multi-well spectrophotometer (SPECTRA MAX 190) at 490 nm.
The inhibition rate was calculated according to the following equation:
Inhibition rate (%)=(1−(ODcompound−ODblank)/(ODnegative−ODblank))×100%
IC50 value was calculated through a four-parameter fit according to the inhibition curve.

NIH3T3/TPR-Met cells = experiment: Cell proliferation mediated by c-Met, SRB assay, NIH3T3/TPR-Met cells; assay type: cell-based; settings: Mus musculus, NIH3T3, 72 h, read-out: inhibition rate (%) on proliferation of NIH3T3/TPR-Met cells
Description: Three concentrations were set, and for each concentration, the test was carried out in triplicate wells. 72 h later, the culture medium was removed. The residue was fixed by precooled 10% TCA at 4° C. for 1 h, washed by distilled water for 5 times and dried at room temperature. […] The excess dye was removed by washed with 1% glacial acetic acid for 5 times and dried in air. At last, 150 μL of Tris-HCL solution (10 mM Tris, pH 10.0) was added to each well.

NIH3T3 background cells = experiment: Cell proliferation, SRB assay, NIH3T3 background cells as control; assay type: cell-based; settings: Mus musculus, NIH3T3, 72 h, read-out: inhibition rate (%) on proliferation of NIH3T3 background cells
Description: NIH3T3/TPR-Met cells in the logarithmic growth phase and NIH3T3 background cells were seeded in a 96-well microcuture plate at 90111_, per well and cultivated overnight, followed by addition of 104 of the compound at different concentrations. Three concentrations were set, and for each concentration, the test was carried out in triplicate wells. 72 h later, the culture medium was removed. The residue was fixed by precooled 10% TCA at 4° C. for 1 h, washed by distilled water for 5 times and dried at room temperature. After that, 4 mg/mL of sulforodamine B (SRB) in 1% glacial acetic acid was added to each well (1004 per well) for staining at room temperature for 15 min. The excess dye was removed by washed with 1% glacial acetic acid for 5 times and dried in air. At last, 150 μL of Tris-HCL solution (10 mM Tris, pH 10.0) was added to each well. OD values were measured on a multi-well spectrophotometer at […].

Chain of c-Met tyrosine kinase (P08581 25-1390): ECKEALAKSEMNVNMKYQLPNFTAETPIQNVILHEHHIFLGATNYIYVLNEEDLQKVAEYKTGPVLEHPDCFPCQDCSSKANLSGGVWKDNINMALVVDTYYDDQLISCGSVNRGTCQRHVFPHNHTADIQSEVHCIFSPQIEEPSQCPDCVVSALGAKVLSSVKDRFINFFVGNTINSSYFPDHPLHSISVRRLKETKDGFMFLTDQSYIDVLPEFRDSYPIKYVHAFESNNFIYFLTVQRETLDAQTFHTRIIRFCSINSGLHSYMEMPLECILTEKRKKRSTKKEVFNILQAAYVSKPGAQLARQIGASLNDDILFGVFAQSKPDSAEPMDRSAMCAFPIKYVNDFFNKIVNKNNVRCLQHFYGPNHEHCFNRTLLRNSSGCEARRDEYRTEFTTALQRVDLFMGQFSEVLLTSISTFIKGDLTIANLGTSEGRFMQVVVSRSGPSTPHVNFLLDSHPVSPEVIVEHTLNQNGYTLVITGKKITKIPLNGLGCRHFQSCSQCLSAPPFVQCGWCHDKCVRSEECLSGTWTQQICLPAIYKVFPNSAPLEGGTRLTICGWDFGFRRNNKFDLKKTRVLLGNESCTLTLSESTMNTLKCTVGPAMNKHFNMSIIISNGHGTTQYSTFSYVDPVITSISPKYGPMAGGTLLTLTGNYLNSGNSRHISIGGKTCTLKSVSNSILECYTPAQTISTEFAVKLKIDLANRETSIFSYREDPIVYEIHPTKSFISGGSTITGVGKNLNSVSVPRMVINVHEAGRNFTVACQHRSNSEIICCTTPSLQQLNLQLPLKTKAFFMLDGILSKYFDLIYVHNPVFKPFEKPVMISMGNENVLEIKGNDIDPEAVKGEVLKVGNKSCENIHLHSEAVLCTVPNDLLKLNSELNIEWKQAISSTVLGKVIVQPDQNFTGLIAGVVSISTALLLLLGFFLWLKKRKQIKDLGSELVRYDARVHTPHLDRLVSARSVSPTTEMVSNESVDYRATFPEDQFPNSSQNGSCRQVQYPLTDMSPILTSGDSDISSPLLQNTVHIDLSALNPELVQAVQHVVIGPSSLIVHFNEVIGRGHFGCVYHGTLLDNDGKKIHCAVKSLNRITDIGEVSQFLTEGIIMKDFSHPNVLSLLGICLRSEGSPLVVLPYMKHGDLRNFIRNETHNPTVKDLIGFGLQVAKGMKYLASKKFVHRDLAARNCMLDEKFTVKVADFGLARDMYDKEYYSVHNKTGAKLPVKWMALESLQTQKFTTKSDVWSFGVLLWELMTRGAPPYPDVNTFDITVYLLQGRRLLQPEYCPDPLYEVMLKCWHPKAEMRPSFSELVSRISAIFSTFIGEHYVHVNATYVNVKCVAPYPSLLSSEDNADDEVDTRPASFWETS

Compound	pIC50 (c-Met tyrosine kinase)	inhibition at 1 µM (NIH3T3/TPR-Met cells) [%]	inhibition at 10 µM (NIH3T3/TPR-Met cells) [%]	inhibition at 50 µM (NIH3T3/TPR-Met cells) [%]	inhibition at 1 µM (NIH3T3 background cells) [%]	inhibition at 10 µM (NIH3T3 background cells) [%]	inhibition at 50 µM (NIH3T3 background cells) [%]
COc1ccc2c(OCc3nnc4ncc(-c5ccc([N+](=O)[O-])cc5)nn34)ccnc2c1 [II-6, 3-[(7-methoxy-4-quinolyl)oxymethyl]-6-(4-nitrophenyl)-[1,2,4]triazolo[4,3-b][1,2,4]triazine]	9.25	78.6	82.4	82.3	46.2	53.3	50.6
COc1ccc2c(OCc3nnc4ncc(-c5ccc(OCc6ccccc6)cc5)nn34)ccnc2c1 [II-8, 3-[(7-methoxy-4-quinolyl)oxymethyl]-6-(4-benzyloxyphenyl)-[1,2,4]triazolo[4,3-b][1,2,4] triazine]	7.49	–	81.2	–	–	7.5	–
COc1cc2nccc(OCc3nnc4ncc(-c5ccc(F)cc5)nn34)c2cc1OC [II-14, 3-[(6,7-dimethoxy-4-quinolyl)oxymethyl]-6-(4-fluorophenyl)-[1,2,4]triazolo[4,3-b][1,2,4] triazine]	8.52	–	75.6	–	–	0	–
COc1cc2nccc(OCc3nnc4ncc(-c5ccc(Cl)cc5)nn34)c2cc1OC [II-15, 3-[(6,7-dimethoxy-4-quinolyl)oxymethyl]-6-(4-chlorophenyl)-[1,2,4]triazolo[4,3-b][1,2,4] triazine]	6.74	–	22.6	–	–	0	–
COc1cc2nccc(OCc3nnc4ncc(-c5ccc(Br)cc5)nn34)c2cc1OC [II-16, 3-[(6,7-dimethoxy-4-quinolyl)oxymethyl]-6-(4-bromophenyl)-[1,2,4]triazolo[4,3-b][1,2,4] triazine]	9.70	–	87.9	–	–	56.2	–
COc1cc2nccc(OCc3nnc4ncc(-c5ccccc5)nn34)c2cc1OC [II-17, 3-[(6,7-dimethoxy-4-quinolyl)oxymethyl]-6-phenyl-[1,2,4]triazolo[4,3-b][1,2,4]triazine]	8.54	–	65.2	–	–	1.2	–
COC(=O)c1ccc(-c2cnc3nnc(COc4ccnc5cc(OC)c(OC)cc45)n3n2)cc1 [II-18, 3-[(6,7-dimethoxy-4-quinolyl)oxymethyl]-6-(4-methoxyformylphenyl)-[1,2,4]triazolo[4,3-b] [1,2,4]triazine]	8.43	5.6	22.9	82.6	29.6	37.3	63.5
COc1cc2nccc(OCc3nnc4ncc(-c5ccc(OCc6ccccc6)cc5)nn34)c2cc1OC [II-19, 3-[(6,7-dimethoxy-4-quinolyl)oxymethyl]-6-(4-benzyloxyphenyl)-[1,2,4]triazolo[4,3-b][1,2,4] triazine]	9.52	6.55	–	97	24.9	31.1	83.4
COc1ccc2c(OCc3nnc4ncc(-c5ccc(Cl)c(Cl)c5)nn34)ccnc2c1 [II-20, 3-[(7-methoxy-4-quinolyl)oxymethyl]-6-(3,4-dichlorophenyl)-[1,2,4]triazolo[4,3-b][1,2,4] triazine]	9.15	78.7	89.4	86.7	10.4	22.5	21.4
Fc1ccc(-c2cnc3nnc(COc4ccnc5ccccc45)n3n2)cc1 [II-21, 3-(4-quinolyloymethyl)-6-(4-fluorophenyl)-[1,2,4]triazolo[4,3-b][1,2,4]triazine]	9.09	24.6	81.4	84.3	28.9	53.9	57.5
